{
  "source": "paper PMC11311241",
  "about": "“In Situ Forming, Enzyme-Responsive Peptoid-Peptide Hydrogels: An Advanced Long-Acting Injectable Drug Delivery System” (Journal of the American Chemical Society, 2024)",
  "key": {"[1]": {"conditions": "rats", "protocol": "Female Sprague–Dawley rats (n = 18, aged 8–10 weeks, mean weight = 220 g) were purchased from Envigo and acclimatized for 1 week prior to experimentation.\nThis treatment was then administered intravenously to the tail vein (8.46 mg kg−1).15 The\nextraction from blood plasma samples was possible. The peptoid-D-peptide experimental\ninjectable solution was formed by dissolving lyophilized UV-sterilized\nmL) were obtained from the tail vein of each rat and collected in 1.5 mL preheparinized\ngroup. Centrifugation (13,400 rpm, 10 min) was utilized to separate blood plasma\nbe analyzed via analytical RP-HPLC and a validated calibration curve (Figure S35) as outlined\nThe pharmacokinetic parameters were calculated using PKSolver 2.0.16, 17 The\nparameters studied were the drug half-life (t1/2), the time to peak drug concentration (Tmax), the\nmaximum plasma concentration (Cmax), the area under the plasma concentration – time curve\nfrom time zero to the last quantifiable concentration on day 35 (AUC0−35), the observed area\nunder the plasma concentration – time curve extrapolated from time zero to infinity (AUC0-\n∞,obs) and the mean residence time (MRT) of the drug extrapolated from time zero to infinity."}, "[2]": {"test_system": "HIV", "conditions": "cited from earlier work"}, "[3]": {"test_system": "alkaline phosphatase", "conditions": "for Strain at complete deformation (G′ and G″ intersect): strain sweep 0.1–1000%, 2.5 rad s-1, 5% w/v gels; for Strain at which the weaker network breaks / Strain at which the stronger second network or entanglement breaks: strain sweep, 5% w/v gels; for Strain at which the weaker network breaks: first deformation; for Strain at which the stronger second network or entanglement breaks: second deformation", "description": "Our drug delivery system is partly defined by drug diffusion from the hydrogel matrix, and hydrolysis of the peptoid-peptide-drug chemical linker. Reproducing supramolecular gels’ mechanical properties is difficult, especially for peptide-based systems. Experimental parameters and formulation factors are particularly important, as highlighted recently by the Adams and Draper groups.[77],[78] Subtle experimental influences e.g. handling and temperature, can lead to issues with reproducibility. […] Loss (G″) and storage (G′) moduli, critical strain (%) and oscillatory time sweeps were performed to determine the rheological changes with time and the potential for rapid in situ hydrogel depot formation upon exposure to 3.98 U mL^–1 phosphatase enzyme. […] Hydrogel formation occurs when the storage modulus (G′) is at least 1 order of magnitude greater than the loss modulus (G″).[79]\nRapid gelation is important for in situ formation of drug delivery depots to reduce the diffusion of drug(s) from the depot and potential burst release. Quick gelation after injectable administration is also important for our system in order to reduce the availability of the peptoid-peptide ester linkage with the drug to water within the subcutaneous space, providing a diffusion barrier to rapid drug cleavage by hydrolysis.[84] There are several ways in which time for gelation can be defined: a) the time at which the storage modulus (G′) and loss modulus (G″) cross indicating greater solid-like behavior; b) the time point at which G′ is greater by 1 order of magnitude than G″; and c) the time at which G′ and G″ begin to stabilize/plateau. […]\n(i) peptoid-peptide sequence dissolved in PBS prior to addition of 2 U alkaline phosphatase, (ii) after 2 U alkaline phosphatase addition and formulation as outlined in Table S2.\nS.4. Oscillatory rheology\nAnton Paar MCR302 rheometer (Anton Paar, St Albans, UK). Gels were formulated at a 2 mL volume in 7 mL Sterilin ™ vials as previously described .8 A vane and cup geometry was used to perform both frequency and strain sweeps. Frequency sweeps were performed at 37 °C from 1 – 100 rad s-1 at a strain of 0.5%. […] sweeps were perform ed at 37°C, 2.5 rad s-1 and a strain of 0.1 – 1000%. Gel strength was measured by determining the strain at which the gels […]\nTable S3. Gelation times for peptoid-L-peptide and peptoid-D-peptide hydrogels upon addition of alkaline phosphatase enzyme derived from data in Figures S25 – S27 S40 and […]\n* Mean value of storage modulus (G′) and loss modulus (G″) for each peptoid-peptide derived"}, "[4]": {"test_system": "NCTC 929 cells", "assay": "MTS cell viability / metabolic activity assay", "type": "cell-based, murine", "conditions": "fully solubilized, 500 μM, 6, 24 and 72 h, vs media-only control, nine replicates", "procedure": "(§1) Peptoid-peptide cell cytotoxicity studies were performed using the International Standard (ISO) murine fibroblast subcutaneous connective tissue NCTC 929 (ATCC CCL 1) cell line.[108],[116] Cell cytotoxicity was assessed using three separate assays, outlined fully in Section S.7 of the Supporting Information: (i) 3-(4,5-dimethylthiazol-2-yl)-5-(3-carboxymethoxyphenyl)-2-(4-sulfophenyl)-2H-tetrazolium (MTS) colorimetric assay, (ii) lactate dehydrogenase (LDH) release and (iii) a Live/Dead assay. The cytotoxicity of each peptoid-peptide was tested after 6 (LDH, MTS), 24 (Live/Dead, MTS) and 72 h (MTS) of exposure. […]\nThe MTS-based CellTiter 96 AQueous One Solution Cell Proliferation Assay (Promega, Southampton, UK) was used to analyze the metabolic activity of treated cells.3 UV absorption was measured at 490 nm using a Tecan Sunrise plate reader (Tecan UK Ltd, Reading, UK) and cell viability/percentage metabolic activity was calculated as outlined in Equation 2 below. […]\nLDH release was quantified as a measure of cytotoxicity using a Cytotoxicity Detection KitPLUS assay (Sigma-Aldrich, Dorset, UK) as previously described.13 The cells were incubated, with each solubilized peptoid-peptide (20 – 500 μM) in combination with NCTC 929 cells for 6 hours, after which 100 μL of test reagent was added to each well, and incubated"}, "[5]": {"assay": "In vitro zidovudine release from hydrogels in PBS, with KinetDS modelling", "type": "physicochemical", "description": "This is typical of physically encapsulated drug release systems, which are prone to drug leakage and a high burst release.[8],[95] The release profile was monitored over the entire 28 day profile. […] Physically encapsulated systems are more applicable to acute drug delivery applications where rapid treatment, such as pain relief, is required at a high dose for a shorter time period. […] Drugs are released from the hydrogel systems in an unmodified form via simple hydrolysis of the drug-ester linkage under physiological conditions. In practice, diffusion through the peptoid-peptide hydrogel matrix and into the surrounding fluid would enable uptake into the systemic circulation. […] There appears to be a link between gelation times for peptoid-L-peptide and peptoid-D-peptide hydrogels, defined by rheological time sweeps (Figures 2f, S25c–f and Table S3). […] It is well established that rapid gel formation minimizes burst release of drug and this is especially relevant to our system,[96] whereby the presence of a gel should act as a diffusional barrier, reducing the ability of water to hydrolyze the covalent ester linkage between peptoid-peptide and drug.\nKinetDS software was utilized to further understand the drug release kinetics of these novel peptoid-peptide hydrogel platforms. Various kinetic models, including zero-order, first-order, Korsmeyer–Peppas, Hixson–Crowell, Higuchi and Weibull models were applied to determine the mechanism of drug release. […] For injectable hydrogel-forming depots quantified by cumulative release, zero-order, first-order and Korsmeyer–Peppas models tend to be the most relevant for establishing the mechanism of drug release kinetics. The Higuchi model applies to drug release driven mainly by diffusion only and it is accepted that this model should not be used when hydrogel swelling may be a factor in release.[97]−[99] […] The Weibull model is associated more with nanoparticles and heterogeneous formulations; however its application in model injectable hydrogels is increasing.[101],[102] […] This indicates super case II transport (n > 0.85), whereby the drug is mainly released through the erosion of the polymer matrix and/or possibly hydrolysis of the ester-drug linkage where present.[99],[103]"}, "[6]": {"test_system": "NCTC 929 cells", "type": "cell-based, murine", "conditions": "24 h, fluorescence microscopy", "procedure": "as §1\nfor a further 5 min. A stop reagent (50 μL) was then added, and the UV absorbance was measured at 490 nm using a Tecan Sunrise plate reader. […]\nin absorbance: i) a high LDH release control representing 100% toxicity was generated by adding 5 μL of lysis solution to non-treated cells 15 min before the addition of the test reagent; ii) each peptoid-peptide was solubilized in media at the highest tested concentration (500 μM); iii) the LDH standard was added to the media; and iv) an equal volume of the highest solubilized peptoid-peptide concentration (500 μM) and the LDH standard were added to the media. The percentage of cell cytotoxicity was calculated using Equation 3 below and is reported once again as the mean of nine measurements (three replicates, repeated three times). […]"}, "[7]": {"conditions": "plasma zidovudine, IV 8.46 mg kg−1, mean ± SEM, n = 6"}, "[8]": {"conditions": "5% w/v, 1–100 rad s-1, strain 0.5%, 37 °C, mean"}, "[9]": {"conditions": "5% w/v hydrogel, PBS pH 7.4, 37 °C, n = 3"}, "[10]": {"conditions": "KinetDS fit of 28 day release profile"}},
  "note": "Where two headings read alike, the source gives them in different places.",
  "data": [
    {"compound": "Cc1cn([C@H]2C[C@H](N=[N+]=[N-])[C@@H](CO)O2)c(=O)[nH]c1=O", "note": "[zidovudine]", "values": [
      {"measurement": "MRT0-∞,obs", "setting": "[1]; [7]", "value": "approximately 1.58 hour"},
      {"measurement": "Tmax", "setting": "[1]; [7]", "value": "0.58 ± 0.08", "unit": "h"},
      {"measurement": "MRT0-∞,obs", "setting": "[1]; plasma zidovudine, IV 8.46 mg kg−1, mean ± SEM, n = 6, listed as Zidovudine", "value": "1.58 ± 0.50", "unit": "h"},
      {"measurement": "Time to undetectable plasma levels", "setting": "[1]; IV control", "value": "≤ 6", "unit": "h"},
      {"measurement": "Plasma peak zidovudine concentration", "setting": "[1]; IV control, mean plasma profile (Figure 5a), n = 6", "value": "7,500 ng mL–1"},
      {"measurement": "IC90 range", "setting": "[2]; 90% maximal inhibitory concentration", "value": "30–130 ng mL–1"},
      {"measurement": "four times IC90 value (pharmacokinetic benchmark for HIV protection)", "setting": "[2]", "value": 120, "unit": "ng mL–1"}
    ]},
    {"compound": "(NPhe)4GGGGK(AZT)Y(p)-OH [peptoid-L-peptide covalently attached to zidovudine via an ester linkage at the lysine position]", "values": [
      {"measurement": "Mean loss modulus (G″) from frequency sweeps", "setting": "[3]; [8]", "value": 112.18},
      {"measurement": "Mean storage modulus (G′) from frequency sweeps", "setting": "[3]; [8]", "value": 856.11},
      {"measurement": "Tan δ = G″/G′ from freq sweeps", "setting": "[3]; 5% w/v, frequency sweeps 1–100 rad s-1, strain 0.5%, 37 °C, from mean moduli", "value": 0.131},
      {"measurement": "Gelation time: G′ and G″ cross", "setting": "[3]; 5% w/v, time sweep after addition of 3.98 U mL-1 alkaline phosphatase, n = 3", "value": "≤ 1", "unit": "min"},
      {"measurement": "Time for G′ and G″ to stabilize", "setting": "[3]; 5% w/v, time sweep after addition of alkaline phosphatase", "value": 135, "unit": "min"},
      {"measurement": "Effect on cell metabolic activity (MTS) at 500 μM", "setting": "[4]", "value": "cell toxicity was once again demonstrated only after 72 h"}
    ]},
    {"compound": "(NPhe)4GGGGK(AZT)Y-OH", "values": [
      {"measurement": "Cumulative zidovudine released in the first 72 h", "setting": "[5]; 5% w/v hydrogel, PBS pH 7.4, 37 °C, % of loaded drug, n = 3", "value": 14.2, "unit": "%"},
      {"measurement": "Cumulative zidovudine released at the final time point (28 days)", "setting": "[5]; [9]", "value": 15.9, "unit": "%"},
      {"measurement": "Cumulative zidovudine released within the first 30 min", "setting": "[5]; [9]", "value": 11.04, "unit": "%"},
      {"measurement": "Weibull model shape factor β", "setting": "[5]; [10]", "value": "0.9550±0.11"},
      {"measurement": "Weibull model α", "setting": "[5]; [10]", "value": "5.362±0.75"},
      {"measurement": "Reduction of drug release in the first 72 h versus physical encapsulation", "setting": "[5]; PBS pH 7.4, 37 °C, chemically conjugated vs physically encapsulated zidovudine", "value": "~88", "unit": "%"},
      {"measurement": "Strain at complete deformation (G′ and G″ intersect)", "setting": "[3]; 37 °C", "value": "~44", "unit": "%"},
      {"measurement": "Strain at which the weaker network breaks", "setting": "[3]", "value": "~4", "unit": "%"},
      {"measurement": "Strain at which the stronger second network or entanglement breaks", "setting": "[3]", "value": "~17.5", "unit": "%"}
    ]},
    {"compound": "(NPhe)4GGGGKY-OH", "values": [
      {"measurement": "Weibull model shape factor β", "setting": "[5]; [10]", "value": 0.9550},
      {"measurement": "Strain at which the weaker network breaks", "setting": "[3]", "value": "~5.78", "unit": "%"},
      {"measurement": "Strain at which the stronger second network or entanglement breaks", "setting": "[3]", "value": "~36.5", "unit": "%"}
    ]},
    {"compound": "(NPhe)4GGGGky(p)-OH [tetrabenzylamine-tetraglycine-D-lysine-O-phospho-D-tyrosine]", "values": [
      {"measurement": "Live/Dead staining result at 500 μM", "setting": "[6]", "value": "demonstrated cytotoxicity"},
      {"measurement": "G′ from frequency sweeps", "setting": "[3]; 5% w/v", "value": "~2030", "unit": "Pa"},
      {"measurement": "Strain at complete deformation (G′ and G″ intersect)", "setting": "[3]; 37 °C", "value": "~192", "unit": "%"},
      {"measurement": "Strain at which the weaker network breaks", "setting": "[3]", "value": "~0.527", "unit": "%"},
      {"measurement": "Strain at which the stronger second network or entanglement breaks", "setting": "[3]", "value": "~4.81", "unit": "%"}
    ]},
    {"compound": "tetrabenzylamine-tetraglycine-L-lysine-O-phospho-L-tyrosine [(NPhe)4GGGGKY(p)-OH]", "values": [
      {"measurement": "Live/Dead staining result at 500 μM", "setting": "[6]", "value": "no observable cytotoxic effects on live cells"}
    ]}
  ]
}
